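Five concentrations, 48 hours, 96-well plates. Abbreviation: GI50, concentration required for 50% inhibition of growth.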 Calls of active or inactive are those of the source. Cut-off read from the data, not from the text of the source: active = GI50 up to about 1.1 µM and inactive = higher.
Tests used:
Assay in all cases: growth of human tumour cells (NCI), 48 h
HOP-92 = tested on: HOP-92
Malme-3M = tested on: Malme-3M
DMS-114 = tested on: DMS-114
HCC 2998 = tested on: HCC 2998
NCI/ADR-RES = tested on: NCI/ADR-RES
XF498 = tested on: XF498
DMS-273 = tested on: DMS-273
MCF7 = tested on: MCF7
KM-20L2 = tested on: KM-20L2
NCI-H226 = tested on: NCI-H226
CAKI-1 = tested on: CAKI-1
ACHN = tested on: ACHN
SR = tested on: SR
T47D = tested on: T47D
TK-10 = tested on: TK-10
MDA-MB-435 = tested on: MDA-MB-435
MDA-N = tested on: MDA-N
MDA-MB-231 = tested on: MDA-MB-231
M14 = tested on: M14
DU-145 = tested on: DU-145

`Nc1c(S(=O)(=O)O)cc2cc(S(=O)(=O)O)ccc2c1/N=N/c1ccc(-c2ccc(/N=N/c3c(N)c(S(=O)(=O)O)cc4cc(S(=O)(=O)O)ccc34)c(S(=O)(=O)O)c2)cc1` was tested, and the GI50 (HOP-92) was > 56.9 µM (inactive), the GI50 (Malme-3M) was > 100 µM (inactive) and the GI50 (DMS-114) was > 100 µM (inactive). The GI50 (HCC 2998) was > 100 µM (inactive), the GI50 (NCI/ADR-RES) was > 100 µM (inactive) and the GI50 (XF498) was > 64.6 µM (inactive). The GI50 (DMS-273) was > 100 µM (inactive), the GI50 (MCF7) was 22.8 µM (inactive) and the GI50 (KM-20L2) was 66.4 µM (inactive). For the same compound, the GI50 (NCI-H226) was > 81.3 µM (inactive).
`COc1cccc2c1C(=O)c1c(O)c3c(c(O)c1C2=O)CC(O)(C(=O)CO)CC3OC1CC(N)C(I)C(C)O1` (stereo not given) was tested, and the GI50 (HOP-92) was 9.68 µM (inactive), the GI50 (Malme-3M) was 6.05 µM (inactive) and the GI50 (DMS-114) was 1.63 µM (inactive). For the same compound, the GI50 (CAKI-1) was 2.87 µM (inactive), the GI50 (HCC 2998) was 13.5 µM (inactive) and the GI50 (NCI/ADR-RES) was 12.4 µM (inactive). The GI50 (XF498) was 6.64 µM (inactive), the GI50 (DMS-273) was 0.424 µM (active) and the GI50 (MCF7) was 1.17 µM (inactive). The GI50 (KM-20L2) was 7.18 µM (inactive) and the GI50 (NCI-H226) was 0.787 µM (active).
In the case of `CC(C)N1CSC(=S)N(Cc2ccccc2)C1`, the GI50 (HOP-92) is reported as 2.84 µM (inactive), the GI50 (ACHN) is reported as > 10 µM (inactive) and the GI50 (SR) is reported as 1.64 µM (inactive). The GI50 (HCC 2998) was > 10 µM (inactive), the GI50 (T47D) was 4.29 µM (inactive) and the GI50 (TK-10) was 3.61 µM (inactive). For the same compound, the GI50 (MDA-MB-435) was 3.84 µM (inactive), the GI50 (NCI/ADR-RES) was > 10 µM (inactive) and the GI50 (MCF7) was 4.16 µM (inactive). The GI50 (MDA-N) was 2.42 µM (inactive).
For `N#C/C(=C\NC(=S)Nc1ccc(S(=O)(=O)Nc2ccccn2)cc1)C(N)=O`, the GI50 (HOP-92) was > 100 µM (inactive), the GI50 (ACHN) was > 100 µM (inactive) and the GI50 (Malme-3M) was > 100 µM (inactive). For the same compound, the GI50 (SR) was > 100 µM (inactive), the GI50 (CAKI-1) was > 100 µM (inactive) and the GI50 (TK-10) was > 100 µM (inactive). The GI50 (MDA-MB-231) was > 100 µM (inactive), the GI50 (MDA-MB-435) was > 100 µM (inactive) and the GI50 (NCI/ADR-RES) was > 100 µM (inactive). For the same compound, the GI50 (M14) was > 100 µM (inactive), the GI50 (MCF7) was > 100 µM (inactive) and the GI50 (DU-145) was > 100 µM (inactive). The GI50 (NCI-H226) was > 100 µM (inactive) and the GI50 (MDA-N) was > 100 µM (inactive).
`CC(=O)NNc1nc(C)c(C(=O)NNC(=O)C(=O)Nc2ccc([N+](=O)[O-])cc2[N+](=O)[O-])s1` was tested, and the GI50 (HOP-92) was 79.3 µM (inactive), the GI50 (ACHN) was > 100 µM (inactive) and the GI50 (DMS-114) was 30.1 µM (inactive). The GI50 (SR) was 81.1 µM (inactive), the GI50 (CAKI-1) was 57.1 µM (inactive) and the GI50 (HCC 2998) was > 100 µM (inactive). The GI50 (TK-10) was > 100 µM (inactive), the GI50 (XF498) was > 100 µM (inactive) and the GI50 (M14) was > 100 µM (inactive). For the same compound, the GI50 (DMS-273) was > 100 µM (inactive), the GI50 (KM-20L2) was > 100 µM (inactive) and the GI50 (NCI-H226) was > 100 µM (inactive).
`CSc1nc(SC)c2cnn(CC3CO3)c2n1` (stereo not given) was tested, and the GI50 (Malme-3M) was 23.5 µM (inactive), the GI50 (DMS-114) was 17.4 µM (inactive) and the GI50 (HCC 2998) was 17.4 µM (inactive). The GI50 (NCI/ADR-RES) was 13.8 µM (inactive), the GI50 (XF498) was 22.4 µM (inactive) and the GI50 (DMS-273) was 22.8 µM (inactive). For the same compound, the GI50 (MCF7) was 9.44 µM (inactive), the GI50 (KM-20L2) was 18.2 µM (inactive) and the GI50 (NCI-H226) was 17.9 µM (inactive).
For `CC(=O)NC(c1nc2cc(C)c(C)cc2[nH]1)c1nc2cc(C)c(C)cc2[nH]1`, the GI50 (HOP-92) was 19.8 µM (inactive), the GI50 (ACHN) was 29.2 µM (inactive) and the GI50 (Malme-3M) was 29 µM (inactive). For the same compound, the GI50 (CAKI-1) was 20.3 µM (inactive), the GI50 (HCC 2998) was 16.9 µM (inactive) and the GI50 (T47D) was 43 µM (inactive). The GI50 (TK-10) was 28.1 µM (inactive), the GI50 (MDA-MB-231) was 26.1 µM (inactive) and the GI50 (MDA-MB-435) was 17.7 µM (inactive). The GI50 (NCI/ADR-RES) was 28.9 µM (inactive), the GI50 (M14) was 25.4 µM (inactive) and the GI50 (MCF7) was 23.9 µM (inactive). The GI50 (DU-145) was 20.2 µM (inactive) and the GI50 (MDA-N) was 19.1 µM (inactive).
